Measurements from patent US6506876B1, “LTA4 hydrolase inhibitor pharmaceutical compositions and methods of use” (G.D. Searle & Co., priority 1994, dated 2003).
Where a name gives a salt, the structure may show the parent alone. Read-outs that look alike come from different tables or passages of the source.

How the values were obtained:
[1] = target: T1, recombinant human LTA4 hydrolase (rhLTA4H) (Homo sapiens, UniProt P09960); assay: Recombinant human LTA4 hydrolase assay for LTA4 hydrolase inhibitor activity
T1 sequence (P09960 1-611): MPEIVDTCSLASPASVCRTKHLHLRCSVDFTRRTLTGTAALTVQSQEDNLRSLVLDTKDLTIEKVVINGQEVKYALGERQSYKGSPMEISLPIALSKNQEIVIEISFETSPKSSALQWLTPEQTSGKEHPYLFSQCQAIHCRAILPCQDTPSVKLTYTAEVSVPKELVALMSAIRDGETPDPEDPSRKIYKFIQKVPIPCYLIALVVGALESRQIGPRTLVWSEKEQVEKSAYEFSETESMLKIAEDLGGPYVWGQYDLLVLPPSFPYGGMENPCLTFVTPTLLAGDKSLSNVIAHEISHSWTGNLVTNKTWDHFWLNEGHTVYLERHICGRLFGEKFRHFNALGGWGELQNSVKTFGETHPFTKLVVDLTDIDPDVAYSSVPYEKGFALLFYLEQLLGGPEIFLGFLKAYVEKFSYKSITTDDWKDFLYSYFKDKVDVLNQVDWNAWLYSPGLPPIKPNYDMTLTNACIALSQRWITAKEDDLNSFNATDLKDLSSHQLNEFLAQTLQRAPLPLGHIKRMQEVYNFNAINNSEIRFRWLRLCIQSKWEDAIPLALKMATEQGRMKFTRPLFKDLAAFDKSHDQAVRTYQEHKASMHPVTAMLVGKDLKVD

[2] = system: LTB4 production in mouse blood (LTA4 hydrolase); assay: Ex vivo LTB4 production by calcium ionophore stimulated mouse blood after oral dosing; type: in vivo
Method: Ex Vivo LTB4 and Thromboxane Production by Calcium Ionophore Stimulated Mouse Blood for LTA4 Hydrolase Inhibitor Activity
Leukotriene A4 hydrolase inhibitor compounds of the present invention were diluted to a predetermined concentration in phosphate buffered saline containing 2% DMSO and 1% Tween 80. The compounds were administered by oral gavage to adult male outbred mice weighing approximately 20-30 gm at a dose of 10 mg/kg body weight. (Compounds given at a dose of 50 mg/kg body weight are designtated in following Table by the symbol, *.) Sixty (60) minutes after administration of an LTA4 inhibitor compound of the invention, blood was collected (into heparin-containing tubes) from the retroorbital sinus. […] The mixture was incubated for 10 minutes at 37° C. in a humidified incubator. The reaction was terminated by centrifugation (833 g, 10 minutes at 4° C.). Supernatants were analyzed for LTB4 and thromboxane by commercially available enzyme-linked immunoassays (Caymen Chemical Co., Ann Arbor, Mich.] in accordance with the manufacturer's instructions. The percent inhibition was determined by comparison to animals treated identically except that the solution admininstered by oral gavage was devoid of inhibitor compound.

[3] = system: LTB4 production in human whole blood (LTA4 hydrolase); assay: LTB4 production by calcium ionophore stimulated human blood; type: cell-based; details: read-out: Inhibition of Calcium Ionophore-Induced LTB4 Production in Human Blood IC50 HWB
Method: LTB4 and Thromboxane Production by Calcium Ionophore Stimulated Human Blood for LTA4 Hydrolase Inhibitor Activity
One or more concentrations of the leukotriene A4 hydrolase inhibitor compounds being tested were prepared (diluted in DMSO) and 2 μl added and gently mixed with the diluted whole blood. After incubating for 15 minutes at 37° C. in a humidified incubator, calcium ionophore A23187 (Sigma Chemical Co., St. Louis, Mo.) was added to a final concentration of 20 mcg/ml and the incubation continued under the same conditions for an additional 10 minutes to allow LTB4 formation. The reaction was terminated by centrifugation (833 g, 10 minutes at 4° C.) and supernatant were analyzed for LTB4 and thromboxane by commercially available enzyme-linked immunoassays (Caymen Chemical Co., Ann Arbor, Mich.) according to the manufacturer's instructions. The IC50 of each test compound was determined from the amount of inhibition of LTB4 production as compared to an essentially identical assay in which no inhibitor compound was present.

[4] = Recombinant Human LTA4 Hydrolase Assay IC50 LTA4H, recombinant hLTA4H
[5] = mouse, oral gavage, 1 hour after administration of 10 mg/kg, read-out: Murine Ex Vivo LTB4 Inhibition % I LTB4
[6] = Homo sapiens, human whole blood, A23187
[7] = Mus musculus, po, 1 h, read-out: Murine Ex Vivo LTB4 Inhibition % I LTB4

IC50 [1, 4] [µM] | IC50 [3, 6] [µM] | SMILES | inhibition in vivo at 10 mg/kg [2, 5] [%] | also measured
 | 1.5 | C(=C\c1ccc(OCCN2CCCC2)cc1)/c1ccccc1 [Example 46, 1-[2-[4-(2-phenylethenyl)phenoxy]ethyl]pyrrolidine] | 13 | 
 | 2.01 | Clc1cc(Cc2ccccc2)ccc1OCCN1CCCC1 [Example 113] |  | 
 | 0.19 | Fc1cc(Cc2ccccc2)ccc1OCCN1CCCC1 [Example 115] |  | 
 | 1.09 | Fc1cc(OCCN2CCCC2)ccc1Cc1ccccc1 [Example 116] | 18 | 
 | 2.48 | COc1cccc(Cc2ccc(OCCN3CCCC3)cc2)c1 [Example 127] |  | 
 | 0.89 | COc1ccc(Cc2ccc(OCCN3CCCC3)cc2)cc1 [Example 128] | 74 | 
 | 1.01 | Clc1ccc(Cc2ccc(OCCN3CCCC3)cc2)cc1 [Example 140] | 15 | 
 | 0.18 | CC(=O)NC1CCN(CCOc2ccc(Cc3ccccc3)cc2)CC1 [Example 238] | 49 | 
 | 0.42 | CC(=O)NC1CCN(CCOc2ccc(Cc3ccccc3)cc2)C1 (stereo not drawn) [Example 256] | 23 | 
0.42 |  | CCC(CN1CCCC1)Oc1ccc(Cc2ccccc2)cc1 (stereo not drawn) [Example 405] | 49 | 
0.5 |  | c1ccc(Cc2ccc(OC(Cc3ccccc3)CN3CCCC3)cc2)cc1 (stereo not drawn) [Example 406] | 46 | 
0.047 |  | NNC(=O)C1CCN(CCOc2ccc(Cc3ccccc3)cc2)CC1 [Example 419] | 90 | 
 | 0.36 | NC(=O)C1CCN(CCOc2ccc(Cc3ccccc3)cc2)C1 (stereo not drawn) [Example 425] | 60 | 
0.35 |  | NC(=O)C1(O)CCN(CCOc2ccc(Cc3ccccc3)cc2)CC1 [Example 427] | 68 | 
0.82 | 0.825 | O=c1[nH]c(C2CCCN(CCOc3ccc(Cc4ccccc4)cc3)C2)no1 (stereo not drawn) [Example 448] |  | 
 | 0.29 | NC1CCN(CCOc2ccc(Cc3ccccc3)cc2)C1 (stereo not drawn) [Example 452] | 57 | 
0.011 |  | NC1CCN(CCOc2ccc(Cc3ccccc3)cc2)CC1 [Example 455] | 67 | 
 | 0.44 | NC(=O)NC1CCN(CCOc2ccc(Cc3ccccc3)cc2)CC1 [Example 456] | 72 | 
 | 2.4 | NC(=O)N1CCN(CCOc2ccc(Cc3ccccc3)cc2)CC1 [Example 459] | 44 | 
0.24 |  | c1ccc(Cc2ccc(OCCN3CC4CCC3C4)cc2)cc1 (stereo not drawn) [Example 499] | 60 | 

The remaining lines, values behind:

SMILES | IC50 [1, 4] [µM] | IC50 [3, 6] [µM] | inhibition in vivo at 10 mg/kg [2, 5] [%] | also measured
c1ccc(Cc2ccc(OCCn3cnc4cnccc43)cc2)cc1 [340 B] | 0.12 | 0.33 | 64 | 
c1ccc(Oc2ccc(OCCCn3cnc4cnccc43)cc2)cc1 [351 B] | 0.29 | 2.08 | 71 | 
c1ccc(Cc2ccc3c(c2)CC(Cn2cnc4ccncc42)O3)cc1 (stereo not drawn) [358 A] | 1.55 |  |  | IC50 ([3]; human whole blood, A23187): 0.152 µM
c1ccc(Cc2ccc(OCCN3CCCC3)cc2)cc1 [Example 45, 1-[2-(4-phenylmethyl)phenoxyethyl]pyrrolidine] |  |  |  | inhibition in vivo at 10 mg/kg [2, 7]: 35%; IC50 ([3]; human whole blood, A23187): 0.116 µM
c1ccc(Cc2cnc(OCCN3CCCC3)s2)cc1 [Example 76] |  | 3.5 |  | 
COC(=O)[C@@H]1CCCN1CCOc1ccc(Cc2ccccc2)cc1 [Example 225, Methyl 1-[2-[4-(Phenylmethyl)phenoxy]ethyl]-2S-pyrrolidine-2-carboxylate, monohydrochloride, hydrate] |  |  |  | IC50 ([3]; Homo sapiens): 1.86 µM
CC(=O)NC1CCN(CCOc2ccc(Cc3ccccc3)cc2)C1 (stereo not drawn) [Example 227] |  |  |  | Murine Ex Vivo LTB4 Inhibition % I LTB4 ([2]; mouse, oral gavage, 1 hour after administration of 10 mg/kg): 23%; IC50 ([3]; human whole blood, A23187): 0.42 µM
COC(=O)C1CCCN1CCOc1ccc(Cc2ccccc2)cc1 (stereo not drawn) [Example 237] | 0.45 |  |  | IC50 ([3]; Homo sapiens): 1.86 µM
CCOC(=O)CNCCCOc1ccc(Cc2ccccc2)cc1 [Example 264] |  | 1.1 |  | inhibition in vivo at 50 mg/kg ([2]; mouse, oral gavage, 1 hour after administration of 50 mg/kg (*), read-out: Murine Ex Vivo LTB4 Inhibition % I LTB4): 87%
CCOC(=O)CCNCCCCOc1ccc(Cc2ccccc2)cc1 [Example 272] |  | 0.076 | 97 | 
CCOC(=O)CC1CCN(CCOc2ccc(Oc3ccccc3)cc2)CC1 [Example 300] | 5 |  |  | IC50 ([3]; human whole blood, A23187): 2.51 µM
CCOC(=O)CNCCCCOc1ccc(Cc2ccccc2)cc1 [Example 320] |  | 0.354 | 85 | 
CCOC(=O)CNCCCCCOc1ccc(Cc2ccccc2)cc1 [Example 321] |  | 0.421 | 87 | 
COC(=O)CCNCCOc1ccc(Cc2ccccc2)cc1 [Example 324] |  | 0.586 | 62 | 
CCOC(=O)C1C2CN(CCOc3ccc(Cc4ccccc4)cc3)CC21 (stereo not drawn) [Example 325] | 20 |  |  | IC50 ([3]; human whole blood, A23187): 2.4 µM
COC(=O)CCN(C)CCCOc1ccc(Cc2cccs2)cc1 [Example 331] |  | 0.095 | 97 | 

SMILES | IC50 [1, 4] [µM] | IC50 [3, 6] [µM] | inhibition in vivo at 10 mg/kg [2, 5] [%] | also measured
c1ccc(Cc2ccc(OCCN3CCCCCC3)cc2)cc1 [Example 397] |  |  |  | IC50 ([1]; read-out: Recombinant Human LTA4 Hydrolase Assay IC50 LTA4H): 0.037 µM; IC50 ([3]; Homo sapiens): 0.12 µM
C#CC(CC(=O)OCC)NCCCOc1ccc(Cc2ccccc2)cc1 (stereo not drawn) [Example 407] | 20 |  | 0 | 
COC(=O)CCN(C)CCCOc1ccc(Cc2ccccc2)cc1 [Example 413] | 0.043 |  | 86 | 
CC(C)(O)CCNCCCOc1ccc(Cc2ccccc2)cc1 [Example 416] | 0.41 |  | 31 | 
CNC(=O)CCNCCCOc1ccc(Cc2ccccc2)cc1 [Example 422] | 0.1 |  | 37 | 
O=C(CCNCCCOc1ccc(Cc2ccccc2)cc1)N1CCOCC1 [Example 424] | 0.37 | 0.58 |  | 
O=C(Nc1ccccc1)OC[C@@H]1CCCN1CCOc1ccc(Cc2ccccc2)cc1 [Example 428] | 0.5 |  | 2 | 
O=C(O)C1CCN(CCOc2ccc(Cc3ccccc3)cc2)CC1 [Example 429] | 0.25 |  |  | inhibition in vivo at 10 mg/kg [2, 7]: 80%
CC(CN(C)CCCOc1ccc(Cc2ccccc2)cc1)C(=O)O (stereo not drawn) [Example 432] | 0.14 |  | 85 | 
O=C(O)C1C2CN(CCOc3ccc(Cc4ccccc4)cc3)CC21 (stereo not drawn) [Example 435] | 0.225 |  |  | IC50 ([3]; human whole blood, A23187): 0.086 µM
O=C(O)C1CCN(CCOc2ccc(Cc3cccs3)cc2)CC1 [Example 437] | 0.113 |  |  | IC50 ([3]; human whole blood, A23187): 0.693 µM
N/C(=N\O)C1CCN(CC2Cc3cc(Cc4ccccc4)ccc3O2)CC1 (stereo not drawn) [Example 446] | 0.035 |  | 70 | 
CC1CC(c2nnn[nH]2)CCN1CCOc1ccc(Cc2ccccc2)cc1 (stereo not drawn) [Example 451] | 0.006 |  | 90 | 
O=C(CCl)NC1CCN(CCOc2ccc(Cc3ccccc3)cc2)C1 (stereo not drawn) [Example 454] | 0.14 |  |  | IC50 ([3]; human whole blood, A23187): 0.61 µM
c1ccc(Cc2ccc(OCCN3CC4CCC3CC4)cc2)cc1 [Example 500] | 0.14 |  | 53 | 
